Test results taken from patent publication EP0897904B1, “Fungicidal 2-methoxybenzophenones” (BASF AKTIENGESELLSCHAFT, priority 1997, dated 1999).

What was measured:
[1] = tested on: Blumeria (Erysiphe) graminis DC. f.sp. hordei E. Marchal; test: Zero day protectant test, Barley Powdery Mildew (BPM); format: in vivo; settings: barley variety Golden Promise, 0 day protectant test, side-by-side, technical material in 0.5% acetone 0.05% Tween 20 water
Excerpt: (§1) • (a) Wheat Powdery Mildew (WPM): HOST: Wheat (Triticum aestivum L.) variety Kanzler PATHOGEN: Blumeria (Erysiphe) graminis DC. f.sp. tritici E. Marchal • (b) Barley Powdery Mildew (BPM): HOST: Barley (Hordeum vulgare L.) variety Golden Promise PATHOGEN: Blumeria (Erysiphe) graminis DC. f.sp. hordei E. Marchal
(§2) This test is a zero day protectant test for control of wheat and barley powdery mildews. • 1. Wheat or barley seed (approximately 8-10/pot) is planted in 6 cm diameter plastic pots and maintained in the greenhouse. • 2. When the primary leaf is fully expanded, formulated test compounds are sprayed with a single nozzle overhead track sprayer at a rate of 200 l/ha. Plants are then allowed to air-dry. • 3. Inoculation follows about three hours after compound application. Plants are set up on greenhouse benches with bottom watering mats and inoculated by dusting them with conidia from powdery mildew infected plants (stock cultures at an age of 10-14 days). • 4. Disease on the primary leaf as percent leaf area with disease symptoms/signs is evaluated about 7 days after inoculation. The tips and bases of the leaves are excluded from the evaluation. Percent disease control is then calculated by the following formula: % disease control = 100 -(% infection in treated plants)/(% infection in untreated plants)x 100 [formula]
(§3) • 1. Technical compounds are formulated in a solvent/surfactant system consisting of […] acetone and 0.05% Tween 20 in deionized water. Compounds are dissolved in acetone prior to addition of the water; the Tween 20 can be added through either the acetone or the water. Dilutions are made using the solvent/surfactant system. Test compounds are typically tested over a range of concentrations covering several orders of magnitude and then ED values are calculated for comparison of compounds. Formulated compounds are prepared using deionized water. • 2. Two kinds of controls are included: • Plants treated with the solvent/surfactant solution and inoculated (Solvent Blank). • Untreated plants which are inoculated (Inoculated Control).
(§4) Compounds applied as technical material formulated in 0.5% acetone 0.05% Tween 20 water

[2] = tested on: Blumeria (Erysiphe) graminis DC. f.sp. tritici E. Marchal; test: Zero day protectant test, Wheat Powdery Mildew (WPM); format: in vivo; settings: wheat variety Kanzler, 0 day protectant test, side-by-side, technical material in 0.5% acetone 0.05% Tween 20 water
Excerpt: as §1, §2, §3, §4

## COc1cc(C)c(C(=O)c2c(C)cccc2OC)c(OC)c1OC [Example 1, 6,6'-dimethyl-2,2',3',4'-tetramethoxy-benzophenone]
[1]
  ED90 (ppm): 6 ppm
[2]
  ED90 (ppm): 4 ppm
